Results reported in patent publication US20090104122A1, “DETECTION OF MEMBRANE ANDROGEN RECEPTOR (mAR) AGENTS” (priority 2006, published 2009).
Numbered stars: 1 amine (or outer) side, 2 acyl side, 3 side chain; on linkers, the order of the positions; unused ones are H or OH. Bridge positions count the residues as written; N and C are the ends. Square brackets hold non-standard residues; d marks the D form. Peptide text beside a SMILES is read from it. ξ: configuration not given here. ξTrp(2-yl) = O=C(C(Cc1c([*:3])[nH]c2ccccc12)N[*:1])[*:2]; X1 = CC(O)(CO)CC(N[*:1])C(=O)[*:2]; ξAsp(3ξ-OH) = NC(C(=O)O)C(O)C(=O)O; Hyp = O=C(O)[CH]1C[CH](O)CN1

Tests used:
DU145 cells [1] = assay: Quantitative measurement of apoptosis (APOPercentage Apoptosis Assay); format: cell-based, human; details: for effect on apoptotic response of DU145 cells treated with Testo-BSA: 10^-6 M, agents blocking actin reorganization; for effect on testo-BSA induced apoptotic response: DU145 cells, signaling inhibitors
Source text: In order to analyze a possible cross-talk between actin cytoskeleton reorganization and apoptosis upon mABS activation, we studied the apoptotic response of DU145 cells in the presence of specific agents blocking actin reorganization. […] The FACS analysis fully supported these observations. […] This assumption is in line with previously published data, showing that actin reorganization is an important signaling step, regulating NFkB translocation and transcriptional regulation of TNFα induced anti-apoptotic response (Papakonstanti and Stounaras, Mol Biol Cell, 2004).
The APOPercentage Apoptosis Assay (Biocolor Ltd., Belfast, N. Ireland) was used to quantify apoptosis, according to manufacturer's instructions. This kit uses a dye that stains red the apoptotic cells undergoing the membrane “flip-flop” event when phosphatidylserine is translocated to the outer leaflet. Detection of apoptosis can be readily observed under inverted microscopy. For apoptosis quantitation, the amount of dye within the labeled cells can subsequently be released into solution and the concentration measured at a wavelength of 550 nm (reference filter 620 nm) using a color filter microplate […] (Dynatech MicroElisa reader Chantilly, Va.).

DU145 cells [2] = assay: Immunoblot analysis of Triton-soluble and insoluble actin (actin polymerization); format: cell-based, human; details: DU145 cells activated with testosterone-BSA
Source text: There has been recognition that activation of mAR sites in LNCaP human prostate cancer cells results within minutes, in a significant rearrangement of the actin cytoskeleton, as indicated by the potent actin polymerization and microfilament reorganization (Kampa et al 2002). Using both, non-permeable testosterone analogs and specific inhibitors or antagonists of the intracellular androgen receptors (iAR), we provided strong evidence that in LNCaP cells this phenomenon was induced through the activation of the mARs. […] These quantitative results were fully supported by confocal laser scanning microscopic analysis of the actin cytoskeleton in testo-BSA treated DU145 cells. Indeed, a complete submembranous redistribution of the microfilamentous structures became evident within 10 minutes and persisted for at least 2 hours, as shown in FIGS. 3A-C.
The Triton-soluble proteins were precipitated with equal amounts of 6% perchloric acid (PCA). The Triton-insoluble fractions were precipitated with 1 ml of 3% PCA. Equal volumes of each fraction were subjected to SDS electrophoresis and proteins were transferred to a nitrocellulose membrane, using the LKB electrophoresis apparatus (LKB, Bromma, Sweden). […] Blots were developed using the enhanced chemiluminescence system, and the band intensities were quantitated by PC-based image analysis (Image Analysis, Inc., Ontario, Canada).

[3] = tested on: LNCaP-inoculated nude mice; assay: In vivo tumor growth in LNCaP-inoculated nude mice; details: 8 mg/kg weight for one month, compared to control animals
FAK/PI-3K/Rac1 pathway = assay: FAK/PI-3K/Rac1 signaling after mAR activation; format: cell-based, human; details: DU145 cells, FAK constitutively phosphorylated
Source text: Indeed, as shown in FIGS. 5A-B, FAK was constitutively phosphorylated in DU145 cells. […] These findings imply the existence of an alternative non-genomic signaling cascade regulating the rapid actin reorganization shown in FIGS. 2A-B.

RhoA = RhoA activation after mAR activation; format: cell-based, human; details: 10^-7 M, DU145 cells
Source text: Looking for an alternative mechanism mediating the non-genomic testosterone signaling in DU145 cells we analyzed a possible rapid activation of Rho-GTPase's. Indeed, among the signaling effectors that regulate such processes of actin reorganization, the best understood are small GTPases of the Rho family. Classically, plasma membrane receptors activate specific guanine exchange factors (GEFs) often via phosphorylation, which leads to subsequent loading of Rho GTPases with GTP. Active Rho GTPases continue signal transmission towards Rho coiled-coiled kinase 1 (ROCK1) and/or p21-activated kinase 1 (Pak1). Activated […] phosphorylate and activate Lim-kinases 1 and 2 (Limk1 and Limk2) respectively. Limk1 and Limk2 are closely related proteins composed of two N-terminal Lim domains and a C-terminal kinase domain. The Lim domains are protein-binding motifs frequently found in cytosolic proteins that interact with the actin cytoskeleton. Eventually, Limk1 and Limk2 phosphorylate actin-depolymerizing proteins such as cofilin and actin-depolymerizing factor (ADF), which are inactivated and thus permit actin polymerization to occur. […] To further analyze the downstream effector of RhaA activation, DU145 cells, activated with testo-BSA were treated with the specific ROCK inhibitor Y27632 and actin redistribution was documented quantitatively using the G/Total-actin ratio.

LNCAP cells = assay: Induction of apoptosis in LNCaP cells; format: cell-based, human
Source text: (§1) This contact induced significant actin remodelling followed by a decrease in cell migration, adhesion and invasion. […] Activation of the pathway induced signaling and actin reorganization. The pathway is not activated in LNCAP cells. […] This effect was not observed with the anti-androgen flutamide.

DU-145 cells = assay: Cell migration, adhesion and invasion after mAR activation; format: cell-based, human
Source text: as §1

[4] = tested on: prostate-specific antigen (PSA); details: within minutes; cited from earlier work

C=C1[C@@H](C)[C@H]2[C@H](Cc3ccccc3)NC(=O)[C@]23OC(=O)/C=C/[C@H](O)CCC[C@@H](C)C/C=C/[C@H]3[C@@H]1O [cytochalasin B]
effect on apoptotic response of DU145 cells treated with Testo-BSA (DU145 cells [1]): clear inhibition

COC[C@H]1OC(=O)c2coc3c2[C@@]1(C)C1=C(C3=O)[C@@H]2CCC(=O)[C@@]2(C)C[C@H]1OC(C)=O [wortmannin]
effect on testosterone-induced rapid actin polymerization (DU145 cells [2]): no effect | effect on testo-BSA induced apoptotic response (DU145 cells [1]): no effect

CC1NC(=O)C2CC(O)CN2C(=O)C2CSc3[nH]c4ccccc4c3CC(NC1=O)C(=O)NC(CC(C)(O)CO)C(=O)NC(C(C)C)C(=O)NC(C(O)C(=O)O)C(=O)N2 (stereo not drawn) [phallacidin] (cyclo([ξAsp(3ξ-OH)]C[Hyp]A[ξTrp(2-yl)][X1]V); thioether 2-5; configuration not given here)
effect on apoptotic response of DU145 cells treated with Testo-BSA (DU145 cells [1]): clear inhibition

C[C@@H](N)[C@H]1CC[C@H](C(=O)Nc2ccncc2)CC1 [Y27632]
effect on testosterone-induced rapid actin polymerization (DU145 cells [2]): totally inhibited | effect on testo-BSA induced apoptotic response (DU145 cells [1]): abrogating

testosterone 3-(O-carboxymethyl)oxime:BSA [testosterone-BSA]
reduction of tumor-size [3]: 60% | induction of apoptosis (DU145 cells [1]): induced apoptosis | FAK phosphorylation (FAK/PI-3K/Rac1 pathway): neither apparent additional FAK phosphorylation could be documented | persistence of RhoA activation (RhoA): up to two hours | time of maximum RhoA activation (RhoA): 30 min | time to activation of RhoA (RhoA): ≤ 3 min | induction of apoptosis (LNCAP cells): induced apoptosis | cell migration, adhesion and invasion (DU-145 cells): decrease | secretion of prostate-specific antigen (PSA) [4]: increase
